Source: patent publication US20230173295A1, “Systems, Devices, and Methods for Gamma Entrainment using Sensory Stimuli to Alleviate Cognitive Deficits and/or Neuroinflammation Induced by Chemotherapy Agents” (Massachusetts Institute of Technology, priority 2020, published 2023)
Entries after “also recorded” stand apart in the source; their conditions may differ.

Legend:
[1] = system: C57/BL6J male mouse; experiment: MTX induced chemo brain model: open field test (OFT); type: in vivo; conditions: MTX vs PBS
Description: Animals were placed in the center of 45×45 cm×40 cm (W×L×H) white acrylic box and their movement were tracked with a behavior tracking software (EthoVision XT, nodulus) for 10 min. 22.5 cm×22.5 cm area in the center of the box was marked as ‘center area’.
(§1) OFT, MWM behavior was tracked with a behavior tracking software (EthoVision XT, Nodulus). NOR and puzzle box behavior was scored by manual counting. Zeiss LSM 710 and Zeiss LSM 880 confocal microscope with Zen software was used to capture fluorescence images. A 3D image analysis software (IMARIS, Bitplane) was used to score Iba1 and GFAP positive voxels, and the area covered by MBP, ventricle size and cell number counting was scored with ImageJ software. Researcher was blinded for the experimental group during data analysis.

[2] = system: C57/BL6J male mouse; experiment: MTX induced chemo brain model: puzzle box test; type: in vivo; conditions: MTX treatment
Description: Animals were placed in a testing arena containing a lighted (55 cm×28 cm) and a dark (15 cm×28 cm) compartment with a connecting tunnel (4 cm×4 cm×2.5 cm), facing the farthest wall from the dark compartment. 3 trials were performed for 3 days. 1 introductory period without any obstacles blocking the tunnel and 2 ‘easy task’ in which animals have to pass a corridor (4 cm×4 cm×12 cm). On day 2, 1 ‘easy task’ and 2 ‘intermediate task’ in which the corridor is blocked with sawdust and the animals have to dig through to reach the dark chamber were performed. On day 3, 1 ‘intermediate task’ and 2 ‘hard task’ where the tunnel was plugged with a tissue were performed. Time of the first entry to the dark chamber was recorded for every trials.
as §1

[3] = system: C57/BL6J male mouse; experiment: MTX induced chemo brain model: Morris water maze (MWM) test; type: in vivo
Description: A circular cylinder with 122 cm diameter was filled with tap water (22° C.-24° C.) and a white paint was added to make the water opaque. The area was divided into 4 equal quardrants and a 10 cm diameter platform was placed in the center of the target quardrant (TQ), the platform being 1 inch lower than the water level. On the first day of training, animals were placed on the platform for 30 seconds, and then retrieved from the water (priming). After 1 minute of priming, animals were placed into the chamber facing the chamber wall. Time to reach the platform was measured when the animal was sitting on the platform for >1s. For 5 consecutive days, animals performed two trials, spaced 1 min. After 5 days of training, the platform was removed from the chamber, and the animals were placed in the center of the chamber. For 1 min duration, time spent in TQ were measured Novel Object Recognition (NOR)
as §1

[4] = system: C57/BL6J male mouse; experiment: MTX induced chemo brain model: survival rate and body weight; conditions: 100 mg/kg MTX i.p.
Description: P21 C57/BL6J male mouse received i.p. injection of either 100 mg/kg MTX or volume-matched PBS on P21, P28, P35 (i.e., 21 days after birth/21 days old, 28 days old, 35 days old) (FIG. 1A). Stim (S) group received 1 hr of 40 Hz audio+visual sensory stimulation immediately after the first injection, and then received 1 hr stimulation every day after that day's injection until the day before they were sacrificed. No stim (NS) group stayed under a dim light for 1 hr immediately after the first injection, and then stayed under a dim light for 1 hr every day until the day before they were sacrificed. Every animal was single-caged in a caged covered with a black-plastic bag on every wall but one side for the duration of 1 hr stim/sham period and then group housed with their littermates.
Another chemotherapeutic agent, methotrexate (MTX)-induced chemo brain animals were tested.

[5] = system: C57/BL6J male mouse; experiment: MTX induced chemo brain model: novel object recognition (NOR); type: in vivo; conditions: MTX without GENUS
Description: Animals were habituated in an OFT box for 10 min, 3 consecutive days. On the 4th day, two identical wooden blocks (Premium wooden building blocks set, Cubbie Lee) were placed in the chamber, and animals were allowed to explore the objects for 5 min, then the animals were returned to their home cage for 5 min. In the test phase, one of the wooden block is switched to a novel wooden block with a different shape, and the time spent exploring the familiar and new object was measured for 10 min. Discrimination ratio was calculated as time spent to explore the new object divided by the sum of time spent to explore both old and new object.
as §1

[6] = system: C57/BL6J male mouse; experiment: MTX induced chemo brain model: immunohistochemistry of brain slices; type: in vivo; conditions: MTX NS
Description: 30˜40 μm thick vibratome sectioned brain slices were washed in PBS, then incubated in a blocking solution (3% normal donkey serum (Millipore Sigma, S30-M) and 0.3% Triton X-100 (Sigma-Aldrich, T8787-100ML) in PBS) for 2 hrs. Then, slices were treated with a blocking solution containing α-Iba1 (1:500, Abcam, ab178846), α-GFAP (1:1000, Novus Biologicals, NBP1-05198), α-MBP (1:500, Millipore, AB9348), α-yH2AX (1:500, EMD Millipore, 05-636), α-Iba1 (1:500, SYSY, 234004), α-Olig2 (1:200, Abcam, ab109186), α-Pdgfra (1:100, Abcam, ab90967) and α-Dcx (1:500, Cell signaling technology, 4604S) in a 4° C.-10° C. controlled cold room for 2 overnight. […]
OFT, MWM behavior was tracked with a behavior tracking software (EthoVision XT, Nodulus). NOR and puzzle box behavior was scored by manual counting. Zeiss LSM 710 and Zeiss LSM 880 confocal microscope with Zen software was used to capture fluorescence images. A 3D image analysis software (IMARIS, Bitplane) was used to score Iba1 and GFAP positive voxels, and the area covered by MBP, ventricle size and cell number counting was scored with ImageJ software. […]

## CN(Cc1cnc2nc(N)nc(N)c2n1)c1ccc(C(=O)N[C@@H](CCC(=O)O)C(=O)O)cc1 [MTX, methotrexate]
[1]
  locomotion in OFT: neither GENUS nor methotrexate (MTX) treatment affected locomotion
  time spent in center area during OFT: GENUS but not MTX significantly increased time spent in center area
[2]
  puzzle box test performance: cognitive impairment
[3]; PBS NS, MTX NS, PBS S, MTX S
  MWM performance: swimming speed, spatial learning and memory: comparable performance in swimming speed, spatial learning and memory
[3]; mouse, in vivo
  MWM learning curve: neither MTX nor GENUS altered learning curve
  MWM swimming speed: neither MTX nor GENUS altered swimming speed
[4]; 1 week after the first administration
  survival rate: ~60%
[4]; within 1 week after the first MTX injection
  lethality: 40%
[5]
  NOR: time exploring novel and familiar object: spent comparable time exploring noble and familiar object
[6]
  Iba1 signal in corpus callosum: dramatically increased; also recorded: significantly higher
